These results are taken from patent publication US10647680B2, “Urea compound, preparation method therefor and medical use thereof” (Ancureall Pharmaceutical (Shanghai) Co., Ltd., priority 2016, dated 2020).

Assay [1] deals with RAMOS (positive expression of Brutons tyrosine protein kinase). The assay is described as follows: In vitro growth inhibition (GI50), RAMOS. Type of assay: cell-based. Conditions: Homo sapiens, Cell lines of leukemia, read-out: GI 50 Ramos BTK.
In the next assay the test system is NCI-H1993 (c-MET amp). Kind of assay: In vitro growth inhibition (GI50), NCI-H1993. In kind it is cell-based. To be noted: Homo sapiens, H1993, cMET Amp+. An excerpt:
Tumor cell line is an effective cell model for studying the inhibition of tumor cell growth or proliferation in vitro. In the present invention, a representative tumor cell line was selected to determine the cell growth inhibition activity of the present compound. All cell lines used were from ATCC, DSMZ, and the Cell Bank of the Chinese Academy of Sciences. Cell culture conditions and methods were in accordance with the requirements of each cell line. Cells were subcultured in vitro for no more than 3 passages each time, and as required, single-clone purification and identification of cell lines could be carried out.
The cell culture media used were RPMI1640 (Gibco), MEM (Gibco), McCOY'S5A (Gibco), and IMDM (Gibco). The complete medium was prepared by supplement with 5˜20% fetal calf serum (Gibco), 1% double-antibiotics (10000 units/mL penicillin and 10000 units/mL), 2 mM glutamine or 1 mM sodium pyruvate, respectively.
The human gastric cancer cell line MKN-45 (c-MET amp, ATCC) and the non-small cell lung cancer cell line NCI-H1993 (c-MET amp, ATCC) were cultured in complete medium comprising 1×RPMI1640 and 10% FBS, respectively.
Adherent cells were digested with 0.25% pancreatin-EDTA (Gibco). The suspension cells were collected by centrifugation. The supernatant was discarded and the cell pellet was resuspended and counted. Different cell concentrations (5˜10×10^4 cells/mL) were prepared according to the growth cycle of each cell line and then seeded on a 96-well plate (Corning), 100 μL/well. The cells were incubated overnight at 37° C., 5% CO2. The compounds were added to the cells on the second day with 2 wells in parallel. The final concentration of organic solvent shall not exceed 1%. The cells were continually incubated for 3 to 5 days, and then subjected to MTT assay.
The compound of the present invention and the control compound were dissolved in DMSO (Sigma) respectively, with the purity of more than 98%. The compound was stored in a concentration of 10 mM at −20° C. and diluted to 2- or 10-fold series prior to use.
Dojindo CCK8 reagent kit was used as MTT assay. THERMO […] FC meter was used as microplate reader.
For adherent cells, culture medium was removed and immediately replaced with the fresh prepared medium which contains 10% CCK8 reagent (100 μL/well). For the suspension cells, CCK8 was directly added to 10% of the final concentration. The cells were continually incubated for 1˜4 h. When a dark yellow color could be observed in the solvent control wells, the absorbance value at OD450 nm was measured and the cell growth rate was calculated according to the following formula: Cell Growth Rate (%)=100*(T−T0)/(C−T0) T=optical density of drug treatment cell well—optical density of blank control well; T0=optical density of cell well before drug treatment—optical density of blank control well; C=optical density of cell well of solvent control group—optical density of blank control well. The concentration value of 50% inhibition of cell growth (GI50) was calculated according to the drug concentration and cell growth rate curve. The experiment was independently repeated 1˜3 times, and subject to biological statistical analysis. 4. Experimental Results
Tumor cell growth inhibition test was performed by selecting representative compounds (compounds 4, 11, 12, 16, 27, 68, 71, 77, 79, 89 and 116 of the present invention). The initial concentration of the compound was 5,000 nM, then it was serially diluted by 2-fold or 10-fold to 0.01 nM. The GI50 value of each test compound was calculated according to the GI50 assay and calculation method. The experiments were repeated 1 to 3 times, and data were subjected to biological statistical analysis.

The structures appear in SMILES notation. Bounds are passed on as bounds.

`CC(C)(C)c1cc(NC(=O)Nc2ccc(-n3cnc4cc(O)ccc43)cc2)no1` [Compound 4, 1-(5-tert-butyl-isoxazol-3-yl)-3-[4-(5-hydroxy-benzimidazol-1-yl)-phenyl]-urea]: the GI50 was 100 to 1000 nM in assay [1] and above 2500 nM in the assay with NCI-H1993 (c-MET amp).

As for `CC(C)(C)c1cc(NC(=O)Nc2ccc(-n3cnc4cc(OCCO)ccc43)cc2)no1` [Compound 11, 1-(5-tert-butyl-isoxazol-3-yl)-3-{4-[5-(2-hydroxy-ethoxyl)-benzimidazol-1-yl]-phenyl]-urea], the GI50 in assay [1] is above 1000 nM; with NCI-H1993 (c-MET amp) it was above 2500 nM.

For `CC(C)(C)c1cc(NC(=O)Nc2ccc(-n3cnc4cc(OCCN5CCOCC5)ccc43)cc2)no1` [Compound 16, 1-(5-tert-butyl-isoxazol-3-yl)-3-{4-[5-(2-morpholin-4-yl-ethoxyl)-benzimidazol-1-yl]-phenyl}-urea], the GI50 in assay [1] was above 1000 nM; in the assay on NCI-H1993 (c-MET amp), above 2500 nM.

As for `CC(C)(C)c1cc(NC(=O)Nc2ccc(-n3cnc4ccc(OCCN5CCOCC5)cc43)cc2)no1` [Compound 27, 1-(5-tert-butyl-isoxazol-3-yl)-3-{4-[6-(2morpholin-4-yl-ethoxyl)-benzimidazol-1-yl]-phenyl}-urea], the GI50 is above 1000 nM in assay [1] and above 2500 nM with NCI-H1993 (c-MET amp).

For `CC(C)(C)c1cc(NC(=O)Nc2ccc(-n3cnc4ccccc43)cc2)[nH]n1` [Compound 68, 1-(4-benzimidazol-1-yl-phenyl)-3-(5-tert-butyl-2H-pyrazol-3-yl)-urea], the GI50 in assay [1] is above 1000 nM; with NCI-H1993 (c-MET amp), above 2500 nM.

In the case of `COc1ccc2c(c1)ncn2-c1ccc(NC(=O)Nc2cc(C(C)(C)C)n[nH]2)cc1` [Compound 71, 1-(5-tert-butyl-2H-pyrazol-3-yl)-3-[4-(5-methoxyl-benzimidazol-1-yl)-phenyl]-urea], the GI50 is above 1000 nM in assay [1] and above 2500 nM in the assay with NCI-H1993 (c-MET amp).

As for `COCCOc1ccc2c(c1)ncn2-c1ccc(NC(=O)Nc2cc(C(C)(C)C)n[nH]2)cc1` [Compound 77, 1-(5-tert-butyl-2H-pyrazol-3-yl)-3-{4-[5-(2-methoxyl-ethoxyl)-benzimidazol-1-yl]-phenyl}-urea], the GI50 is above 1000 nM in assay [1] and above 2500 nM in the assay with NCI-H1993 (c-MET amp).

As to `CC(C)(C)c1cc(NC(=O)Nc2ccc(-n3cnc4cc(OCCO)ccc43)cc2)[nH]n1` [Compound 79, 1-(5-tert-butyl-2H-pyrazol-3-yl)-3-{4-[5-(2-hydroxy-ethoxyl)-benzimidazol-1-yl]-phenyl]urea], the GI50 is above 1000 nM in assay [1] and above 2500 nM with NCI-H1993 (c-MET amp).

For `CC(C)(C)c1cc(NC(=O)Nc2ccc(-n3cnc4cc(OCCN5CCOCC5)ccc43)cc2)[nH]n1` [Compound 89, 1-(5-tert-butyl-2H-pyrazol-3-yl)-3-{4-[5-(2-morpholin-4-yl-ethoxyl)-benzimidazol-1-yl]-phenyl}-urea], the GI50 in assay [1] was above 1000 nM; with NCI-H1993 (c-MET amp), above 2500 nM.

As for `CC(C)(C)c1cc(N)n(C(=O)Nc2ccc(-n3cnc4ccccc43)cc2)n1` [Compound 116, 5-amino-3-tert-butyl-pyrazol-1-carboxylic acid (4-benzimidazol-1-yl-phenyl)-amide], the figures for the GI50 (in assay [1]; in the assay on NCI-H1993 (c-MET amp)) were above 1000 nM and above 2500 nM, respectively.
